Key:
[1] = target: T1, FSHR (Homo sapiens, UniProt P23945); assay: EC50 of Cyclic AMP Production in CHO FSHR Cells+EC20 FSH (Assay A); type: cell-based; conditions: for EC50: cAMP HTRF
T1 construct: expressed in transfected cells; host or cells: CHO (Cho-FSHR-LUC-1-1-43)
T1 sequence (P23945 18-695): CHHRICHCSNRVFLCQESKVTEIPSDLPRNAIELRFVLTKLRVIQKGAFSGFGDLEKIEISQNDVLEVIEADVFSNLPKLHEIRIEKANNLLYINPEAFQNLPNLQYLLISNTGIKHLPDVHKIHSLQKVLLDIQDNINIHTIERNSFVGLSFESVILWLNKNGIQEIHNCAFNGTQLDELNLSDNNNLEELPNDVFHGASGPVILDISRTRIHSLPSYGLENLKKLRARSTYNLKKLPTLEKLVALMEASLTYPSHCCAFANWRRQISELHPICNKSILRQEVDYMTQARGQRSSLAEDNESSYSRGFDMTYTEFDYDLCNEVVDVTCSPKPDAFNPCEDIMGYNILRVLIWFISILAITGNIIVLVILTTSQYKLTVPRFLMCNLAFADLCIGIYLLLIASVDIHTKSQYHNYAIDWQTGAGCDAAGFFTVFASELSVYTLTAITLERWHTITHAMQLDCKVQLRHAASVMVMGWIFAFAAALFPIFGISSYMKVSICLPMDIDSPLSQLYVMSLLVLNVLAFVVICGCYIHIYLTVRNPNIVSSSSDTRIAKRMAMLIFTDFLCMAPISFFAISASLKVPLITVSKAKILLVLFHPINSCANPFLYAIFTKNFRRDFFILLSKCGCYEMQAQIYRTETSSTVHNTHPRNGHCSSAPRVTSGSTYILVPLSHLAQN
Method: Example 17: EC50 of Cyclic AMP Production in CHO FSHR Cells+EC20 FSH (Assay A)
2500 Cho-FSHR-LUC-1-1-43 cells were plated per well in 5 μl of phenol red free DMEM/F12+1% FBS. Cells were plated in 384 well, solid white low volume plates (Greiner 784075) by Multidrop. Cells were assayed by adding 100 μl of 2×EC20 FSH/IBMX in DMEM/F12+0.1% BSA) by Multidrop to 2 μl of test compound stamped in 384 well plates (compounds are diluted 1:50). The final FSH concentration was […], and the final IBMX concentration was 200 μM. The compound plate map was as follows: Column 1: 2 μl of DMSO; Column 2: 2 μl of DMSO; Columns 3-12 and 13-24: 2 μl of test compound, diluted 1:4 in 100% DMSO, or 2 μl of FSH, diluted 1:4 in DMEM/F12+0.1% BSA. The starting concentration for FSH was 50 nM (final concentration was 0.5 nM). Furthermore, Column 23 contained 2 μl of EC100 FSH reference (100×) (diluted in DMEM/F12+0.1% BSA) at a final concentration of 0.5 nM, and Column 24 contained 2 μl of 1 mM AS707664/2 reference compound 2.5 μl of compound+EC20 FSH mixture were transferred to cell plates (1:2 dilution into 5 μl of cell media) The plates were incubated at 37° C. for 1 h. 10 μl of mixed HTRF (CisBio #62AM4PEC) reagents were added per well and incubated at room temperature for 1 h. The plates were read on Envision using the cAMP HTRF—low volume 384 well protocol. The readout was the calculated fluorescence ratio (665 nm/620 nm). Values given in percent (%) indicate the percental effect (response) at a certain concentration of agonist relative to the maximum response of the FSH standard.

[2] = system: Rat Granulosa; assay: Rat Granulosa EC50 FSH (Assay B); type: cell-based; conditions: rat granulosa cells
Method: Example 18: Rat Granulosa EC50 FSH (Assay B)
The assay was performed pursuant to the teaching of Yanofsky et al. (2006) Allosteric activation of the follicle-stimulating hormone (FSH) receptor by selective, nonpeptide agonists. JBC 281(19): 13226-13233, which is incorporated by reference in the disclosure of the invention.

Row | SMILES | EC50 [1] | EC50 [2] | also measured
1 | Cc1ccccc1N1CCN(c2c(NC(=O)c3coc(C4CC4)n3)cc(C(=O)NCCCN3CCCC3=O)cc2C(F)(F)F)CC1 | 1 to 5 µM | – | –
2 | Cc1ccccc1N1CCN(c2c(NC(=O)c3ccco3)cc(C(=O)NCCCN3CCCC3=O)cc2C(F)(F)F)CC1 | – | – | Emax at 3 µM ([1]; @ 3 μM, read-out: Assay A: percental effect (response) relative to the maximum response of the FSH standard): 39%
3 | Cc1ccc(C)c(N2CCN(c3cc(Cl)c(C(=O)NCc4cccc(CN(C)C)c4)cc3NC(=O)c3coc(C4CC4)n3)CC2)c1 | 1 to 5 µM | – | –
4 | Cc1ccccc1N1CCN(c2cc(C3CC3)c(C(=O)NCCCN3CCCC3=O)cc2NC(=O)c2ccco2)CC1 | 1 to 5 µM | – | –
5 | Cc1ccccc1N1CCN(c2cc(N(C)C)c(C(=O)NCCCN3CCCC3=O)cc2NC(=O)c2ccco2)CC1 | 1 to 5 µM | – | –
6 | Cc1ccccc1N1CCN(c2cc(Cl)c(C(=O)NCc3cccc(CN(C)C)c3)cc2NC(=O)c2ccco2)CC1 | > 5 µM | – | –
7 | CCOc1cc(N2CCN(c3ccccc3C)CC2)c(NC(=O)c2ccco2)cc1C(=O)NCCCN1CCCC1=O | 1 to 5 µM | – | –
8 | Cc1ccccc1N1CCN(c2cc3c(cc2NC(=O)c2ccco2)C(=O)N(Cc2cccc(CN(C)C)c2)CC3)CC1 | 1 to 5 µM | – | –
9 | Cc1ccc(F)cc1N1CCN(c2cc(Cl)c(C(=O)NCc3cccc(CN(C)C)c3)cc2NC(=O)c2ccco2)CC1 | 1 to 5 µM | – | –
10 | Cc1ccccc1N1CCN(c2cc(Cl)c(C(=O)NCCC(C)(C)C(=O)O)cc2NC(=O)c2coc(C3CC3)n2)CC1 | 0.1 to 1 µM | – | Assay B: percental effect (response) ([2]; @ 25 μM): 46% @ 25 μM
11 | Cc1ccccc1N1CCN(c2cc(F)c(C(=O)NCCCN3CCOC3=O)cc2NC(=O)c2coc(C3CC3)n2)CC1 | 0.1 to 1 µM | 1 to 5 µM | –
12 | Cc1ccccc1N1CCN(c2cc(F)c(C(=O)N[C@H]3CCC[C@H](C(=O)OC(C)(C)C)C3)cc2NC(=O)c2coc(C3CC3)n2)CC1 | 0.1 to 1 µM | – | Assay B: percental effect (response) ([2]; concentration not given): 39%
13 | Cc1ccccc1N1CCN(c2cc3c(cc2NC(=O)c2coc(C4CC4)n2)C(=O)N(C2CCC[C@H](O)[C@@H]2O)CC3)CC1 (stereo partly shown) | – | 1 to 5 µM | –
14 | Cc1ccccc1N1CCN(c2cc3c(cc2NC(=O)c2coc(C4CC4)n2)C(=O)N([C@H]2CCC[C@H](O)[C@@H]2O)CC3)CC1 | 0.1 to 1 µM | – | –
15 | Cc1ccccc1N1CCN(c2cc(F)c(C(=O)N[C@H]3CCC[C@@H](C(=O)OC(C)(C)C)C3)cc2NC(=O)c2coc(C3CC3)n2)CC1 | > 5 µM | – | Assay B: percental effect (response) ([2]; concentration not given): 11%
16 | Cc1ccccc1N1CCN(c2cc(F)c(C(=O)N[C@@H]3CCC[C@H](C(=O)OC(C)(C)C)C3)cc2NC(=O)c2coc(C3CC3)n2)CC1 | 0.1 to 1 µM | < 0.1 µM | –
17 | COC(=O)[C@@H]1CCC[C@H](NC(=O)c2cc(NC(=O)c3coc(C4CC4)n3)c(N3CCN(c4ccccc4C)CC3)cc2F)C1 | 0.1 to 1 µM | – | –

Further lines, with some results ahead:

Row | EC50 [1] | EC50 [2] | SMILES | also measured
18 | < 0.1 µM | 0.1 to 1 µM | Cc1ccccc1N1CCN(c2cc(Cl)c(C(=O)NCCCN3CCCC3=O)cc2NC(=O)c2coc(C3CC3)n2)CC1 | –
19 | < 0.1 µM | 1 to 5 µM | COc1cc(N2CCN(c3ccccc3C)CC2)c(NC(=O)c2coc(C3CC3)n2)cc1C(=O)NCCCN1CCCC1=O | –
20 | 0.1 to 1 µM | – | Cc1ccccc1N1CCN(c2cc(O)c(C(=O)NCCCN3CCCC3=O)cc2NC(=O)c2coc(C3CC3)n2)CC1 | –
21 | < 0.1 µM | – | Cc1ccccc1N1CCN(c2cc3c(cc2NC(=O)c2coc(C4CC4)n2)C(=O)N(CCCN2CCCC2=O)CC3)CC1 | Assay B: percental effect (response) ([2]; @ 5 μM): 133% @ 5 μM
22 | 0.1 to 1 µM | – | Cc1ccccc1N1CCN(c2cc(F)c(C(=O)NCCCN3CCCC3=O)cc2NC(=O)c2coc(C3CC3)n2)CC1 | –
23 | 0.1 to 1 µM | – | Cc1ccc(C)c(N2CCN(c3cc(Cl)c(C(=O)NCCCN4CCCC4=O)cc3NC(=O)c3coc(C4CC4)n3)CC2)c1 | –
24 | 0.1 to 1 µM | – | Cc1ccccc1N1CCN(c2cc(C3CC3)c(C(=O)NCCCN3CCCC3=O)cc2NC(=O)c2coc(C3CC3)n2)CC1 | –
25 | 0.1 to 1 µM | 0.1 to 1 µM | CCc1cc(N2CCN(c3ccccc3C)CC2)c(NC(=O)c2coc(C3CC3)n2)cc1C(=O)NCCCN1CCCC1=O | –
26 | 0.1 to 1 µM | 0.1 to 1 µM | Cc1ccccc1N1CCN(c2cc(N(C)C)c(C(=O)NCCCN3CCCC3=O)cc2NC(=O)c2coc(C3CC3)n2)CC1 | –
27 | 0.1 to 1 µM | 0.1 to 1 µM | COCCOc1cc(N2CCN(c3ccccc3C)CC2)c(NC(=O)c2coc(C3CC3)n2)cc1C(=O)NCCCN1CCCC1=O | –
28 | < 0.1 µM | 0.1 to 1 µM | CCOc1cc(N2CCN(c3ccccc3C)CC2)c(NC(=O)c2coc(C3CC3)n2)cc1C(=O)NCCCN1CCCC1=O | –
29 | 0.1 to 1 µM | – | Cc1ccc(C(=O)Nc2cc(C(=O)NCCCN3CCOC3=O)c(Cl)cc2N2CCN(c3ccccc3C)CC2)o1 | –
30 | < 0.1 µM | 0.1 to 1 µM | Cc1ccccc1N1CCN(c2cc(Cl)c(C(=O)NCCCN3CCOC3=O)cc2NC(=O)c2coc(C3CC3)n2)CC1 | –
31 | 0.1 to 1 µM | – | Cc1ccc(F)cc1N1CCN(c2cc(Cl)c(C(=O)NCCCN3CCCC3=O)cc2NC(=O)c2coc(C3CC3)n2)CC1 | –
32 | 0.1 to 1 µM | – | Cc1ccccc1N1CCN(c2cc(C(F)(F)F)c(C(=O)NCCCN3CCCC3=O)cc2NC(=O)c2coc(C3CC3)n2)CC1 | –
33 | < 0.1 µM | 0.1 to 1 µM | Cc1cccnc1N1CCN(c2cc(Cl)c(C(=O)NCCCN3CCOC3=O)cc2NC(=O)c2coc(C3CC3)n2)CC1 | –
34 | 0.1 to 1 µM | 1 to 5 µM | Cc1ccccc1N1CCN(c2cc(Cl)c(C(=O)NCCCc3nnn(C)n3)cc2NC(=O)c2coc(C3CC3)n2)CC1 | –
35 | < 0.1 µM | 1 to 5 µM | Cc1ccccc1N1CCN(c2cc(Cl)c(C(=O)N[C@H]3CCC[C@H](O)[C@@H]3O)cc2NC(=O)c2coc(C3CC3)n2)CC1 | –
36 | 0.1 to 1 µM | 0.1 to 1 µM | Cc1ccccc1N1CCN(c2cc(Cl)c(C(=O)NCCCc3nnnn3C)cc2NC(=O)c2coc(C3CC3)n2)CC1 | –
37 | < 0.1 µM | 0.1 to 1 µM | Cc1ccccc1N1CCN(c2cc3c(cc2NC(=O)c2coc(C4CC4)n2)C(=O)N(CCCN2CCOC2=O)CC3)CC1 | –
38 | < 0.1 µM | – | Cc1ccccc1N1CCN(c2cc(F)c(C(=O)N[C@H]3CCC[C@@H](C(=O)O)C3)cc2NC(=O)c2coc(C3CC3)n2)CC1 | –
39 | < 0.1 µM | – | Cc1ccccc1N1CCN(c2cc(F)c(C(=O)N[C@@H]3CCC[C@H](C(=O)O)C3)cc2NC(=O)c2coc(C3CC3)n2)CC1 | –
40 | < 0.1 µM | – | Cc1ccccc1N1CCN(c2cc3ccn(CCCN4CCOC4=O)c(=O)c3cc2NC(=O)c2coc(C3CC3)n2)CC1 | –
